Source: patent US20240277698A1, “METHODS OF USING ALDOSTERONE SYNTHASE INHIBITORS” (CINCOR PHARMA, INC., priority 2021, published 2024)

Test: MAD study: safety (adverse events, vital signs, ECG, laboratory values, body weight)
Type: in vivo, human
Settings: for tolerability: once daily for 10 days
Experimental: (§1) Safety was assessed throughout the study based on AEs, physical examinations, weight measurements, electrocardiograms (ECGs), orthostatic vital sign assessments, and clinical laboratory evaluations. In order to thoroughly assess any potential effect of (R)-compound 1 on QT interval, continuous ECG recordings were also performed, starting approximately 1 hour before dosing, and continuing for approximately 24 hours after dosing on Days 1 and 10.
as §1, with “is” for “was”, “ECGs,” for “electrocardiograms (ECGs), orthostatic”, “sign (including orthostatic)” for “sign”, “performed” for “performed,”, “dosing” for “dosing,”, “10. If cardiodynamic analyses are undertaken, 12-lead ECGs will be extracted at predefined time points paired with PK samples.” for “10.”

[1] = 0.5 mg, normal salt diet, N = 9
[2] = 1.5 mg, normal salt diet, N = 9
[3] = 2.5 mg, normal salt diet, N = 6
[4] = all dose levels including placebo, treatment period
[5] = all subjects receiving (R)-compound 1

CCC(=O)N[C@@H]1CCCc2c(-c3ccc4c(c3)CCC(=O)N4C)cncc21 [(R)-Compound 1, (R)—N-(4-(1-methyl-2-oxo-1,2,3,4-tetrahydroquinolin-6-yl)-5,6,7,8-tetrahydroisoquinolin-8-yl)propionamide]
Any TEAE, % of subjects (0.5 mg NS, N = 9): (11.1) %
Any TEAE, number of subjects (0.5 mg NS, N = 9): 1
Related TEAE, % of subjects (0.5 mg NS, N = 9): (11.1) %
Related TEAE, number of subjects (0.5 mg NS, N = 9): 1
Subjects with any AE [1]: 1 (11.1) n (%)
Subjects with any TEAE [1]: 1 (11.1) n (%)
Subjects with any TEAE by maximum severity: Mild [1]: 1 (11.1) n (%)
Subjects with any TEAE by maximum severity: Moderate [1]: 0 (0.0) n (%)
Subjects with any TEAE by maximum severity: Severe [1]: 0 (0.0) n (%)
Subjects with any TEAE leading to death [1]: 0 (0.0) n (%)
Subjects with any TEAE leading to discontinuation [1]: 0 (0.0) n (%)
Subjects with any study drug-related TEAE [1]: 1 (11.1) n (%)
Subjects with any study drug-related TEAE by maximum severity: Mild [1]: 1 (11.1) n (%)
Subjects with any study drug-related TEAE by maximum severity: Moderate [1]: 0 (0.0) n (%)
Subjects with any study drug-related TEAE by maximum severity: Severe [1]: 0 (0.0) n (%)
Subjects with any study drug-related TEAE leading to discontinuation [1]: 0 (0.0) n (%)
Subjects with any study drug-related treatment-emergent SAE [1]: 0 (0.0) n (%)
Subjects with any treatment-emergent SAE [1]: 0 (0.0) n (%)
Any TEAE, % of subjects (1.5 mg NS, N = 9): (11.1) %
Any TEAE, number of subjects (1.5 mg NS, N = 9): 1
Related TEAE, % of subjects (1.5 mg NS, N = 9): (0) %
Related TEAE, number of subjects (1.5 mg NS, N = 9): 0
Subjects with any AE [2]: 1 (11.1) n (%)
Subjects with any TEAE [2]: 1 (11.1) n (%)
Subjects with any TEAE by maximum severity: Mild [2]: 1 (11.1) n (%)
Subjects with any TEAE by maximum severity: Moderate [2]: 0 (0.0) n (%)
Subjects with any TEAE by maximum severity: Severe [2]: 0 (0.0) n (%)
Subjects with any TEAE leading to death [2]: 0 (0.0) n (%)
Subjects with any TEAE leading to discontinuation [2]: 0 (0.0) n (%)
Subjects with any study drug-related TEAE [2]: 0 (0.0) n (%)
Subjects with any study drug-related TEAE by maximum severity: Mild [2]: 0 (0.0) n (%)
Subjects with any study drug-related TEAE by maximum severity: Moderate [2]: 0 (0.0) n (%)
Subjects with any study drug-related TEAE by maximum severity: Severe [2]: 0 (0.0) n (%)
Subjects with any study drug-related TEAE leading to discontinuation [2]: 0 (0.0) n (%)
Subjects with any study drug-related treatment-emergent SAE [2]: 0 (0.0) n (%)
Subjects with any treatment-emergent SAE [2]: 0 (0.0) n (%)
Any TEAE, % of subjects (2.5 mg LS, N = 9): (33.3) %
Any TEAE, number of subjects (2.5 mg LS, N = 9): 3
Related TEAE, % of subjects (2.5 mg LS, N = 9): (22.2) %
Related TEAE, number of subjects (2.5 mg LS, N = 9): 2
Any TEAE, % of subjects (2.5 mg NS, N = 6): (50) %
Any TEAE, number of subjects (2.5 mg NS, N = 6): 3
Related TEAE, % of subjects (2.5 mg NS, N = 6): (33.3) %
Related TEAE, number of subjects (2.5 mg NS, N = 6): 2
Subjects with any AE (2.5 mg, low salt diet, N = 9): 3 (33.3) n (%)
Subjects with any TEAE (2.5 mg, low salt diet, N = 9): 3 (33.3) n (%)
Subjects with any TEAE by maximum severity: Mild (2.5 mg, low salt diet, N = 9): 3 (33.3) n (%)
Subjects with any TEAE by maximum severity: Moderate (2.5 mg, low salt diet, N = 9): 0 (0.0) n (%)
Subjects with any TEAE by maximum severity: Severe (2.5 mg, low salt diet, N = 9): 0 (0.0) n (%)
Subjects with any TEAE leading to death (2.5 mg, low salt diet, N = 9): 0 (0.0) n (%)
Subjects with any TEAE leading to discontinuation (2.5 mg, low salt diet, N = 9): 0 (0.0) n (%)
Subjects with any study drug-related TEAE (2.5 mg, low salt diet, N = 9): 2 (22.2) n (%)
Subjects with any study drug-related TEAE by maximum severity: Mild (2.5 mg, low salt diet, N = 9): 2 (22.2) n (%)
Subjects with any study drug-related TEAE by maximum severity: Moderate (2.5 mg, low salt diet, N = 9): 0 (0.0) n (%)
Subjects with any study drug-related TEAE by maximum severity: Severe (2.5 mg, low salt diet, N = 9): 0 (0.0) n (%)
Subjects with any study drug-related TEAE leading to discontinuation (2.5 mg, low salt diet, N = 9): 0 (0.0) n (%)
Subjects with any study drug-related treatment-emergent SAE (2.5 mg, low salt diet, N = 9): 0 (0.0) n (%)
Subjects with any treatment-emergent SAE (2.5 mg, low salt diet, N = 9): 0 (0.0) n (%)
Subjects with any AE [3]: 3 (50.0) n (%)
Subjects with any TEAE [3]: 3 (50.0) n (%)
Subjects with any TEAE by maximum severity: Mild [3]: 3 (50.0) n (%)
Subjects with any TEAE by maximum severity: Moderate [3]: 0 (0.0) n (%)
Subjects with any TEAE by maximum severity: Severe [3]: 0 (0.0) n (%)
Subjects with any TEAE leading to death [3]: 0 (0.0) n (%)
Subjects with any TEAE leading to discontinuation [3]: 0 (0.0) n (%)
Subjects with any study drug-related TEAE [3]: 2 (33.3) n (%)
Subjects with any study drug-related TEAE by maximum severity: Mild [3]: 2 (33.3) n (%)
Subjects with any study drug-related TEAE by maximum severity: Moderate [3]: 0 (0.0) n (%)
Subjects with any study drug-related TEAE by maximum severity: Severe [3]: 0 (0.0) n (%)
Subjects with any study drug-related TEAE leading to discontinuation [3]: 0 (0.0) n (%)
Subjects with any study drug-related treatment-emergent SAE [3]: 0 (0.0) n (%)
Subjects with any treatment-emergent SAE [3]: 0 (0.0) n (%)
Any TEAE, % of subjects (5 mg LS, N = 9): (33.3) %
Any TEAE, number of subjects (5 mg LS, N = 9): 3
Related TEAE, % of subjects (5 mg LS, N = 9): (11.1) %
Related TEAE, number of subjects (5 mg LS, N = 9): 1
Subjects with any AE (5.0 mg, low salt diet, N = 9): 3 (33.3) n (%)
Subjects with any TEAE (5.0 mg, low salt diet, N = 9): 3 (33.3) n (%)
Subjects with any TEAE by maximum severity: Mild (5.0 mg, low salt diet, N = 9): 3 (33.3) n (%)
Subjects with any TEAE by maximum severity: Moderate (5.0 mg, low salt diet, N = 9): 0 (0.0) n (%)
Subjects with any TEAE by maximum severity: Severe (5.0 mg, low salt diet, N = 9): 0 (0.0) n (%)
Subjects with any TEAE leading to death (5.0 mg, low salt diet, N = 9): 0 (0.0) n (%)
Subjects with any TEAE leading to discontinuation (5.0 mg, low salt diet, N = 9): 0 (0.0) n (%)
Subjects with any study drug-related TEAE (5.0 mg, low salt diet, N = 9): 1 (11.1) n (%)
Subjects with any study drug-related TEAE by maximum severity: Mild (5.0 mg, low salt diet, N = 9): 1 (11.1) n (%)
Subjects with any study drug-related TEAE by maximum severity: Moderate (5.0 mg, low salt diet, N = 9): 0 (0.0) n (%)
Subjects with any study drug-related TEAE by maximum severity: Severe (5.0 mg, low salt diet, N = 9): 0 (0.0) n (%)
Subjects with any study drug-related TEAE leading to discontinuation (5.0 mg, low salt diet, N = 9): 0 (0.0) n (%)
Subjects with any study drug-related treatment-emergent SAE (5.0 mg, low salt diet, N = 9): 0 (0.0) n (%)
Subjects with any treatment-emergent SAE (5.0 mg, low salt diet, N = 9): 0 (0.0) n (%)
Subjects with any AE (Overall (R)-compound 1, N = 42): 11 (26.2) n (%)
Subjects with any TEAE (Overall (R)-compound 1, N = 42): 11 (26.2) n (%)
Subjects with any TEAE by maximum severity: Mild (Overall (R)-compound 1, N = 42): 11 (26.2) n (%)
Subjects with any TEAE by maximum severity: Moderate (Overall (R)-compound 1, N = 42): 0 (0.0) n (%)
Subjects with any TEAE by maximum severity: Severe (Overall (R)-compound 1, N = 42): 0 (0.0) n (%)
Subjects with any TEAE leading to death (Overall (R)-compound 1, N = 42): 0 (0.0) n (%)
Subjects with any TEAE leading to discontinuation (Overall (R)-compound 1, N = 42): 0 (0.0) n (%)
Subjects with any study drug-related TEAE (Overall (R)-compound 1, N = 42): 6 (14.3) n (%)
Subjects with any study drug-related TEAE by maximum severity: Mild (Overall (R)-compound 1, N = 42): 6 (14.3) n (%)
Subjects with any study drug-related TEAE by maximum severity: Moderate (Overall (R)-compound 1, N = 42): 0 (0.0) n (%)
Subjects with any study drug-related TEAE by maximum severity: Severe (Overall (R)-compound 1, N = 42): 0 (0.0) n (%)
Subjects with any study drug-related TEAE leading to discontinuation (Overall (R)-compound 1, N = 42): 0 (0.0) n (%)
Subjects with any study drug-related treatment-emergent SAE (Overall (R)-compound 1, N = 42): 0 (0.0) n (%)
Subjects with any treatment-emergent SAE (Overall (R)-compound 1, N = 42): 0 (0.0) n (%)
Any TEAE, % of subjects (Total (R)-Compound 1, N = 42): (26.2) %
Any TEAE, number of subjects (Total (R)-Compound 1, N = 42): 11
Related TEAE, % of subjects (Total (R)-Compound 1, N = 42): (14.3) %
Related TEAE, number of subjects (Total (R)-Compound 1, N = 42): 6
decrease in mean BW from baseline [4]: ≤ 2 kg
decrease in mean body mass index from baseline [4]: < 0.65 kg/m^2
subjects experiencing a TEAE [5]: 11 (26.2%)
subjects experiencing a TEAE considered related to study drug [5]: 6 (14.3%)
subjects experiencing dizziness [5]: 2 (4.8%)
subjects experiencing headache [5]: 4 (9.5%)
subjects experiencing postural dizziness [5]: 3 (7.1%)
BP as compared to placebo (healthy subjects): no clinically significant changes
all other TEAEs (presyncope, eye irritation, abdominal pain, constipation, viral infection, rhinitis, back pain, anxiety, dry throat, dysphonia), subjects each (human, in vivo, oral, 10 days): 1 subject
reduction in glomerular filtration rate (mild): < 15%
plasma sodium and potassium levels (multiple doses): Mild, dose-dependent decreases in plasma sodium levels and increases in plasma potassium levels
tolerability (healthy subjects): safe and well tolerated
tolerability (healthy subjects, listed as (R)-compound 1): safe and well tolerated
decrease in mean BMI from baseline (overall (R)-compound 1 group): −0.442 kg/m^2
decrease in mean body weight from baseline (overall (R)-compound 1 group): -1.31 kg
QTcF (up to 5 mg QD for 10 days): no meaningful changes
